US9885086B2, “Phospholipase C gamma 2 and resistance associated mutations” (Pharmacyclics LLC, priority 2014, dated 2018)

System: DT40 cells stably expressing mutated PLCγ2 (L845F)
Assay: Calcium flux assay in DT40 cells after anti-IgM stimulation
Assay type: cell-based, chicken
Conditions: L845F PLCγ2 mutant DT40 cells, 1 μM Ibrutinib 30 min
Protocol: The intracellular calcium level was detected by Calcium Assay Kit (BD Biosciences, San Diego, Calif.) and measured by Beckman Coulter DTX880 microplate reader. After 195 seconds of acquisition to determine the baseline, 3 μg/ml anti-chicken IgM (SouthernBiotech, Birmingham, Ala.) was added to stimulate the cells.
WT PLCγ2 and L845F PLCγ2 were stably transfected into 293 cells and DT40 cells which lack endogenous PLCγ2 expression (FIG. 5). Calcium flux was examined in DT40 cells after anti-IgM stimulation in the presence of WT or mutant PLCγ2.

SMILES: C=CC(=O)N1CCC[C@@H](n2nc(-c3ccc(Oc4ccccc4)cc3)c3c(N)ncnc32)C1 [ibrutinib]
- inhibition of IgM-mediated calcium flux: not inhibited
